IC50 data for 33 compounds are collected here from patent US10100058B2, “Fused heterocyclic compounds as CaM kinase inhibitors” (Gilead Sciences, Inc., priority 2016, dated 2018).

The experiment concerns the target recombinant CaMKIIδ (Homo sapiens (Human), UniProt Q13557). Put plainly: CaMKIIδ biochemical assay (HTRF). The note with it: 10 pM CaMKIIδ, 110 nM calmodulin, 12 μM ATP, 1 hour; read-out: CAMKIID-HTRF-384V2 (IC50 - nM). As for the experimental part: CaMKIIδ Biochemical Assay
The biochemical activity of recombinant CaMKIIδ was measured by monitoring the phosphorylation of a target peptide using Homogenous Time Resolved Fluorescence (HTRF) technology from CisBio Bioassays.
Broadly, the IC50 is the point on the concentration scale where inhibition reaches its midpoint. Take `CC[C@@H](CNC(=O)c1cc(-c2cnn3ccc(-c4cccs4)nc23)nc(N2CC[C@H]2C(=O)NC)c1)N(CC)CC` (single isomer, unassigned) [Example 356A]: the half-inhibitory concentration (IC50) was found to be 0.31 nM.
As to `CC[C@H](CNC(=O)c1cc(-c2cnn3ccc(-c4cccs4)nc23)nc(N2CC[C@H]2C(=O)NC)c1)N(CC)CC` (single isomer, unassigned) [Example 356B], the IC50 came out at 3.04 nM.
Take `NCC1CC(F)(F)CN1C(=O)c1ccnc(-c2cnn3ccc(-c4cccs4)nc23)c1` (stereo in doubt) [Example 78, (S)-(2-(aminomethyl)-4,4-difluoropyrrolidin-1-yl)(2-(5-(thiophen-2-yl)pyrazolo[1,5-a]pyrimidin-3-yl)pyridin-4-yl)methanone]: the IC50 was found to be 9.44 nM.
As for `CCN(CC)[C@@H](C)CNC(=O)c1cc(-c2cnn3ccc(-c4cccs4)nc23)nc(N2CCC(C#N)C2)c1` (stereo in doubt) [Example 313, 2-((S)-3-cyanopyrrolidin-1-yl)-N—((S)-2-(diethylamino)propyl)-6-(5-(thiophen-2-yl)pyrazolo[1,5-a]pyrimidin-3-yl)isonicotinamide], the IC50 is 0.18 nM.
In the case of `COC1CN(c2cc(C(=O)N3C4CC[C@@H]3CCNC4)cc(-c3cnn4ccc(-c5ccccc5)nc34)n2)C1` (stereo in doubt) [Example 330, (-3,9-diazabicyclo[4.2.1]nonan-9-yl)(2-(3-methoxyazetidin-1-yl)-6-(5-phenylpyrazolo[1,5-a]pyrimidin-3-yl)pyridin-4-yl)methanone], the IC50 came out at 44.6 nM.
In the case of `O=C(NCC12CCCN1CCC2)c1ccnc(-c2cnn3ccc(-c4cccs4)nc23)c1` [Example 3, N-((hexahydro-1H-pyrrolizin-7a-yl)methyl)-2-(5-(thiophen-2-yl)pyrazolo[1,5-a]pyrimidin-3-yl)isonicotinamide], the IC50 was 5.55 nM.
On to `O=C(NC[C@@H]1C[C@H](F)CN1)c1ccnc(-c2cnn3ccc(-c4cccs4)nc23)c1` [Example 5, N-(((2S,4S)-4-fluoropyrrolidin-2-yl)methyl)-2-(5-(thiophen-2-yl)pyrazolo[1,5-a]pyrimidin-3-yl)isonicotinamide], for which the IC50 was determined as 12.7 nM.
The result for `O=C(NC[C@@H]1CCN1)c1ccnc(-c2cnn3ccc(-c4cccs4)nc23)c1` [Example 7, (S)—N-(azetidin-2-ylmethyl)-2-(5-(thiophen-2-yl)pyrazolo[1,5-a]pyrimidin-3-yl)isonicotinamide] reads 6.05 nM.
For the compound `O=C(NC[C@H]1CCN1)c1ccnc(-c2cnn3ccc(-c4cccs4)nc23)c1` [Example 8, (R)—N-(azetidin-2-ylmethyl)-2-(5-(thiophen-2-yl)pyrazolo[1,5-a]pyrimidin-3-yl)isonicotinamide], the IC50 is 10 nM.
For the compound `CN(C)CCNC(=O)c1ccnc(-c2cnn3ccc(-c4cccs4)nc23)c1` [Example 9, N-(2-(dimethylamino)ethyl)-2-(5-(thiophen-2-yl)pyrazolo[1,5-a]pyrimidin-3-yl)isonicotinamide], the IC50 came to 26 nM.
`CCC[C@@]1(CNC(=O)c2ccnc(-c3cnn4ccc(-c5cccs5)nc34)c2)CCCN1` [Example 10, (S)—N-((2-propylpyrrolidin-2-yl)methyl)-2-(5-(thiophen-2-yl)pyrazolo[1,5-a]pyrimidin-3-yl)isonicotinamide]: the IC50 stood at 9.8 nM.
With `CC[C@@]1(CNC(=O)c2ccnc(-c3cnn4ccc(-c5cccs5)nc34)c2)CCCN1` [Example 11, (S)—N-((2-ethylpyrrolidin-2-yl)methyl)-2-(5-(thiophen-2-yl)pyrazolo[1,5-a]pyrimidin-3-yl)isonicotinamide], the IC50 came to 10.7 nM.
As to `C[C@@]1(CNC(=O)c2ccnc(-c3cnn4ccc(-c5cccs5)nc34)c2)CCCN1` [Example 12, (S)—N-((2-methylpyrrolidin-2-yl)methyl)-2-(5-(thiophen-2-yl)pyrazolo[1,5-a]pyrimidin-3-yl)isonicotinamide], the IC50 amounted to 14.9 nM.
In the case of `C[C@@H](NC(=O)c1ccnc(-c2cnn3ccc(-c4cccs4)nc23)c1)[C@@H]1CCCN1` [Example 13, N—((R)-1-((S)-pyrrolidin-2-yl)ethyl)-2-(5-(thiophen-2-yl)pyrazolo[1,5-a]pyrimidin-3-yl)isonicotinamide], the IC50 was 153 nM.
Take `C[C@@H](CNC(=O)c1ccnc(-c2cnn3ccc(-c4cccs4)nc23)c1)NCC(F)F` [Example 14, (S)—N-(2-((2,2-difluoroethyl)amino)propyl)-2-(5-(thiophen-2-yl)pyrazolo[1,5-a]pyrimidin-3-yl)isonicotinamide]: the IC50 is 23.8 nM.
With `CCN(CC(F)F)[C@@H](C)CNC(=O)c1ccnc(-c2cnn3ccc(-c4cccs4)nc23)c1` [Example 15, (S)—N-(2-((2,2-difluoroethyl)(ethyl)amino)propyl)-2-(5-(thiophen-2-yl)pyrazolo[1,5-a]pyrimidin-3-yl)isonicotinamide], the IC50 turned out to be 8.34 nM.
Consider `O=C(NCC1CCCCCN1)c1ccnc(-c2cnn3ccc(-c4cccs4)nc23)c1` (stereo not drawn) [Example 16, N-(azepan-2-ylmethyl)-2-(5-(thiophen-2-yl)pyrazolo[1,5-a]pyrimidin-3-yl)isonicotinamide], for which the concentration for half-maximal inhibition (IC50) amounted to 60 nM.
The figure for `CC(C)C[C@@]1(CNC(=O)c2ccnc(-c3cnn4ccc(-c5cccs5)nc34)c2)CCCN1` [Example 17, (R)—N-((2-isobutylpyrrolidin-2-yl)methyl)-2-(5-(thiophen-2-yl)pyrazolo[1,5-a]pyrimidin-3-yl)isonicotinamide] is 7.47 nM.
On to `O=C(NC[C@]1(CC2CC2)CCCN1)c1ccnc(-c2cnn3ccc(-c4cccs4)nc23)c1` [Example 18, (R)—N-((2-(cyclopropylmethyl)pyrrolidin-2-yl)methyl)-2-(5-(thiophen-2-yl)pyrazolo[1,5-a]pyrimidin-3-yl)isonicotinamide], for which the 50% inhibitory concentration (IC50) worked out at 6.51 nM.
As to `O=C(NCC1CCCCN1)c1ccnc(-c2cnn3ccc(-c4cccs4)nc23)c1` (stereo not drawn) [Example 19, N-(piperidin-2-ylmethyl)-2-(5-(thiophen-2-yl)pyrazolo[1,5-a]pyrimidin-3-yl)isonicotinamide], the IC50 was 89.3 nM.
The figure for `CCN[C@@H](C)CNC(=O)c1ccnc(-c2cnn3ccc(-c4cccs4)nc23)c1` [Example 20, (S)—N-(2-(ethylamino)propyl)-2-(5-(thiophen-2-yl)pyrazolo[1,5-a]pyrimidin-3-yl)isonicotinamide] is 4.97 nM.
Turning to `C[C@@H](CNC(=O)c1ccnc(-c2cnn3ccc(-c4cccs4)nc23)c1)NCCO` [Example 21, (S)—N-(2-((2-hydroxyethyl)amino)propyl)-2-(5-(thiophen-2-yl)pyrazolo[1,5-a]pyrimidin-3-yl)isonicotinamide], the IC50 came to 27.8 nM.
The result for `C[C@H](N)CNC(=O)c1ccnc(-c2cnn3ccc(-c4cccs4)nc23)c1` [Example 22, (S)—N-(2-aminopropyl)-2-(5-(thiophen-2-yl)pyrazolo[1,5-a]pyrimidin-3-yl)isonicotinamide] reads 13.9 nM.
As to `CCCN[C@@H](C)CNC(=O)c1ccnc(-c2cnn3ccc(-c4cccs4)nc23)c1` [Example 23, (S)—N-(2-(propylamino)propyl)-2-(5-(thiophen-2-yl)pyrazolo[1,5-a]pyrimidin-3-yl)isonicotinamide], the IC50 was 14.6 nM.
In the case of `C[C@@H](CNC(=O)c1ccnc(-c2cnn3ccc(-c4cccs4)nc23)c1)NCCF` [Example 24, (S)—N-(2-((2-fluoroethyl)amino)propyl)-2-(5-(thiophen-2-yl)pyrazolo[1,5-a]pyrimidin-3-yl)isonicotinamide], the IC50 turned out to be 7.88 nM.
Regarding `C[C@@H](CNC(=O)c1ccnc(-c2cnn3ccc(-c4cccs4)nc23)c1)NCC1CC1` [Example 26, (S)—N-(2-((cyclopropylmethyl)amino)propyl)-2-(5-(thiophen-2-yl)pyrazolo[1,5-a]pyrimidin-3-yl)isonicotinamide], the IC50 stood at 10.7 nM.
Consider `C[C@@H](CNC(=O)c1ccnc(-c2cnn3ccc(-c4cccs4)nc23)c1)NCC(F)F` [Example 27, (S)—N-(2-((2,2-difluoroethyl)amino)propyl)-2-(5-(thiophen-2-yl)pyrazolo[1,5-a]pyrimidin-3-yl)isonicotinamide], for which the IC50 stood at 18.4 nM.
With `C[C@@H](CNC(=O)c1ccnc(-c2cnn3ccc(-c4cccs4)nc23)c1)NCC(F)(F)F` [Example 28, (S)-2-(5-(thiophen-2-yl)pyrazolo[1,5-a]pyrimidin-3-yl)-N-(2-((2,2,2-trifluoroethyl)amino)propyl)isonicotinamide], the IC50 was 53.4 nM.
As for `CCN[C@H](CC)CNC(=O)c1ccnc(-c2cnn3ccc(-c4cccs4)nc23)c1` [Example 29, (R)—N-(2-(ethylamino)butyl)-2-(5-(thiophen-2-yl)pyrazolo[1,5-a]pyrimidin-3-yl)isonicotinamide], the IC50 is 7.72 nM.
On to `CCN[C@@H](CC)CNC(=O)c1ccnc(-c2cnn3ccc(-c4cccs4)nc23)c1` [Example 30, (S)—N-(2-(ethylamino)butyl)-2-(5-(thiophen-2-yl)pyrazolo[1,5-a]pyrimidin-3-yl)isonicotinamide], for which the IC50 was determined as 3.67 nM.
As for `CCC(CNC(=O)c1ccnc(-c2cnn3ccc(-c4cccs4)nc23)c1)NC(C)C` (stereo not drawn) [Example 31, N-(2-(isopropylamino)butyl)-2-(5-(thiophen-2-yl)pyrazolo[1,5-a]pyrimidin-3-yl)isonicotinamide], the IC50 was 12.1 nM.
As to `CC(C)N[C@@H](C)CNC(=O)c1ccnc(-c2cnn3ccc(-c4cccs4)nc23)c1` [Example 32, (S)—N-(2-(isopropylamino)propyl)-2-(5-(thiophen-2-yl)pyrazolo[1,5-a]pyrimidin-3-yl)isonicotinamide], the IC50 is 18 nM.
For the compound `CCN[C@H](C)CNC(=O)c1ccnc(-c2cnn3ccc(-c4cccs4)nc23)c1` [Example 33, (R)—N-(2-(ethylamino)propyl)-2-(5-(thiophen-2-yl)pyrazolo[1,5-a]pyrimidin-3-yl)isonicotinamide], the IC50 amounted to 8.44 nM.
